# Source: US11554103B2, “Compositions and methods to reduce pharmaceutical-induced toxicity” (priority 2016, dated 2023)
# Entries after “also recorded” stand apart in the source; their conditions may differ.
# How the values were obtained:
# [1] = system: substantia nigra pars compacta dopaminergic neurons; experiment: Ex vivo brain slice mitochondrial oxidant stress, mito-roGFP probe, two photon microscopy; format: cell-based, mouse; details: for effect on methamphetamine-induced dendritic mitochondrial stress / effect on methamphetamine-induced axonal (terminal) mitochondrial stress: 10 μM methamphetamine; for effect on methamphetamine-induced dendritic mitochondrial stress / effect on methamphetamine-induced axonal (terminal) mitochondrial stress / effect on levodopa-induced dendritic mitochondrial stress / effect on levodopa-induced axonal (terminal) mitochondrial stress / basal mitochondrial stress, monoamine oxidase inhibitor alone: clorgyline 5 μM; for effect on levodopa-induced dendritic mitochondrial stress / effect on levodopa-induced axonal (terminal) mitochondrial stress: 100 μM levodopa; for basal mitochondrial stress, monoamine oxidase inhibitor alone: dendrites and axons; for effect on methamphetamine- and levodopa-induced mitochondrial stress: slices pre-incubated with the MAO inhibitor
# Method: (§1) Animals and treatment paradigms: Male C57/B16 and TH-mitoroGFP (Guzman et al., 2010 Nature p. 696; incorporated by reference in its entirety) mice 5-8 wks of age were used for all imaging studies. In addition to the TH-mitoroGFP transgenic line, roGFP was virally delivered into the SNc of C57/B16 mice (either targeting cytosolic or mitochondrial compartments).
# (§2) Two photon microscopy: Ex vivo slices of the dorsolateral striatum or SNc were prepared and redox status determined as previously described (Guzman et al., 2010 Nature p. 696; incorporated by reference in its entirety). […] The dynamic range of the probe was determined by perfusing 2 mM dithiothreitol (DTT) to fully reduce the probe and 200 μM aldrithiol to fully oxidize the probe; data presented as % relative oxidation.
# Stereotaxic surgery: PCR amplified roGFP, mitoroGFP and IMSroGFP inserts were subcloned into pFB-TH-SV40pA vector between EcoR1 and SalI sites. After sequence and expression verification, pFB-TH-roGFP vectors were packaged into rAAVs using serotype 9 with titers 2.1-×10^13 viral genome copies/ml (Virovek). Mice were anesthetized using an isoflurane precision vaporizer (Smiths Medical PM) and placed in a stereotaxic frame (David Kopf Instruments) with a Cunningham adaptor (Harvard Apparatus) to maintain anesthesia delivery throughout surgery. After exposing the skull, a small hole was drilled and 350 nL of AAV9-TH-cytosolic roGFP or AAV9-TH-mitoroGFP delivered via a glass micropipette (Drummond Scientific Company) pulled on a Sutter P-97 puller. The substantia nigra pars compacta (SNc) was targeted at the following coordinates: AP: −3.05, ML: 1.20, and DV −4.30. All surgeries were performed in wild-type mice. Experiments in animals with stereotaxic delivery of AAV viral vectors were performed after at least 10 days post-op.
# Ex vivo slice preparation: Mice were terminally anesthetized with a mixture of ketamine (50 mg/kg)/xylazine (4.5 mg/kg) and transcardially perfused with ice cold modified artificial cerebrospinal fluid (aCSF) containing in mM: 124.0 NaCl, 3.0 KCl, 1.0 CaCl2, 2.0 MgCl2, 26 NaHCO3, 1.0 NaH2PO4, and 16.66 glucose. Once perfused the brain was rapidly removed and either saggital or coronal slices containing the dorsolateral striatum (275 μm thick) or the SNc (220 μm thick) sectioned using a vibratome (VT1200S Leica Microsystems). Slices were transferred to a holding chamber containing normal aCSF containing in mM: 124.0 NaCl, 3.0 KCl, 2.0 CaCl2, 1.0 MgCl2, 26 NaHCO3, 1.0 NaH2PO4, and 16.66 glucose and allowed at least 30-40 minutes to recover prior to experiments. All solutions were pH 7.4, 310-320 mOsm and continually bubbled with 95% O2/5% CO2.
# Ex vivo redox measurements and two photon microscopy: Oxidant stress was assessed using the redox sensitive roGFP probe targeted either to the cytosol or mitochondrial matrix as previously described.^10 Slices were transferred to a recording chamber and continuously perfused with normal aCSF at 32-34° C. Fluorescence was measured using an Ultima Laser Scanning Microscope system (Bruker) with a DODT contrast detector to provide bright-field transmission images with an Olympus 60/0.9NA lens. A two-photon laser (Chameleon Ultra II, Coherent Inc.) tuned to 920 nm was used to excite roGFP. Time series image acquisitions of the roGFP probe were obtained with 60 frames obtained over ˜20 seconds with 0.195 μm×0.195 μm pixels and 10-12 μsec dwell times. The dynamic range of the probe was determined with 2 mM dithiothreitol, a reducing agent, and 200 μM aldrithiol, an oxidizing agent, which were sequentially perfused and t-series acquired with each to determine the maximal and minimal fluorescence intensity. Test measurements were calculated as relative oxidation. T-series were analyzed offline and fluorescence measurements in multiple regions of interest evaluated with background subtracted.^10 Final data is presented as percent of control (aCSF perfusion).
# [2] = system: tyrosine hydroxylase positive cells in the SNc; experiment: Methamphetamine 14 days plus 14 days withdrawal, stereology of tyrosine hydroxylase positive cells (Example 1); format: in vivo, mouse
# Method: as §1
# Stereology: Brains were fixed with 4% paraformaldehyde and serial coronal sections ([…]) were stained for tyrosine hydroxylase. Total number of tyrosine hydroxylase positive cells were counted in the SNc with the optical fractionator method (West et al., 1991 Anat Rec p. 482; Ilijic et al., 2011 Neurobiol Dis p. 364; incorporated by reference in their entireties).
# [3] = system: substantia nigra pars compacta dopaminergic neurons; experiment: Chronic in vivo methamphetamine administration for 28 days, stereology and striatal optical density (Example 2)
# Method: Immunohistochemistry and stereological analysis: Mice were terminally anesthetized with a mixture of ketamine (50 mg/kg)/xylazine (4.5 mg/kg) and transcardially perfused with 4% paraformaldehyde, post-fixed overnight and cryoprotected in 30% sucrose/phosphate buffered saline (PBS) at 4° C. until use. Serial coronal sections (60 μm thick) were collected throughout the midbrain and striatum. To stain for tyrosine hydroxylase the anti-tyrosine hydroxylase polyclonal antibody (Millipore) 1:2000 followed by goat anti-rabbit IgG biotin conjugated antibody (Millipore) 1:500 with normal goat serum blocking solution was used; after antibody incubation and rinsing with PBS, sections were incubated with ABC Elite Kit (Vector) and processed for diaminobenzidine reaction. Slices were mounted on slides, allowed to dry overnight, dehydrated in ascending alcohol concentrations and mounted with DPX mountant (Sigma). The estimated number of tyrosine hydroxylase positive (TH^+) cells were stereologically counted as previously described.^27 Slices from DAT-Cre X Ai14 mice expressing TdTomato in dopaminergic neurons were mounted on slides, allowed to dry, and mounted with Prolong Gold antifade mountant (Invitrogen). The estimated number of tdTomato expressing cells were stereologically counted. Sampling for stereological quantification was done using an Olympus BX41 microscope with motorized stage (Applied Scientific Instrumentation) and computerized stereology software (Stereologer). The SNc was delineated in each animal in every other section and cells counted using a 40×/0.65NA Olympus lens.
# Drug application in ex vivo brain slice or iPSC experiments was performed via perfusion in aCSF.
# [4] = system: substantia nigra pars compacta dopaminergic neurons; experiment: Ex vivo brain slice cytosolic oxidant stress, cyto-roGFP probe, two photon microscopy; format: cell-based, mouse; details: bath application of 20 μM menadione
# Method: as §1
# as §2, with “oxidation. […]” for “oxidation.”
# Ex vivo redox measurements and two photon microscopy: Oxidant stress was assessed using the redox sensitive roGFP probe targeted either to the cytosol or mitochondrial matrix as previously described.^10 Slices were transferred to a recording chamber and continuously perfused with normal aCSF at 32-34° C. Fluorescence was measured using an Ultima Laser Scanning Microscope system (Bruker) with a DODT contrast detector to provide bright-field transmission images with an Olympus 60/0.9NA lens. […] Test measurements were calculated as relative oxidation. […]
# [5] = system: human iPSC-derived dopamine neurons; experiment: iPSC redox measurements (roGFP, one photon microscopy); format: cell-based; details: for axonal mitochondrial stress in the intermembrane space: 100 μM levodopa vs control, IMS-roGFP
# Description: Human iPSC culture and neural differentiation: The iPSC line was generated from skin fibroblasts of a healthy individual through retroviral expression of OCT4, SOX2, cMYC, KLF4 and previously clinically characterized.^23-25 Differentiation of iPSCs into midbrain dopaminergic neurons was done according to published protocols.^26 To help control neuralization variability, cells were passaged en bloc (size of 1-2 mm) between days 11 and 14, followed by plating onto poly-d-lysine (PDL)/laminin coated 10 cm dishes. Between days 25 and 30, neural blocks were passed by accutase treatment onto PDL/laminin coated culture dishes. Neuralization growth factors were withdrawn at day 40 and neurons were maintained in Neurobasal media (Life Technologies) containing Neurocult SM1 (Stemcell technologies).
# iPSC redox measurements and one photon microscopy: Human iPSC-derived dopaminergic neurons were grown on 12 mm glass coverslips and imaged between 75 and 88 days post-differentiation. Two to four days before experimentation, dopaminergic neurons were infected with viral vectors targeting roGFP expression to mitochondrial matrix (AAV9-TH-mitoroGFP), mitochondrial intermembrane space (AAV9-TH-IMSroGFP),^17 or the cytosol (AAV9-TH-cytoroGFP)^7. Cultures were transferred to an imaging chamber mounted on an inverted epifluorescence microscope (Nikon TE300) with a 40×/1.35NA oil-immersion objective. The imaging chamber was superfused with aCSF at a flow rate of 1 ml/min. Imaging experiments were carried out at 31-33° C. Cells were illuminated by Polychrome V (TILL Photonics) and emissions were captured with a cooled CCD camera (Hamamatsu ImagEM) and Slidebook imaging software (Intelligent Imaging Innovations). Regions of interests in the dendrites or axon were selected for image analysis. […] Afterwards, neurons were perfused with 2 mM dithiothreitol for 20 min and then 100 μM aldrithiol for 20 min to obtain full roGFP dynamic range.^7
# SNc dopaminergic neurons = experiment: Pacemaking frequency in ex vivo slices; format: cell-based, mouse; details: 10 μM methamphetamine
# [6] = rasagiline 10 μM, listed as rasagaline
# [7] = 1 mg/kg rasagiline pretreatment, 5 mg/kg methamphetamine
# [8] = 5 mg/kg methamphetamine, 28 consecutive days
smiles,measurement,setting,value
C#CCN[C@@H]1CCc2ccccc21 [rasagiline],effect on d-amphetamine-induced axonal mitochondrial stress,"[1]; 10 μM d-amphetamine, rasagiline 10 μM",prevented
same,effect on methamphetamine-induced dendritic mitochondrial stress,[1]; rasagiline 10 μM,prevented
same,effect on methamphetamine-induced axonal (terminal) mitochondrial stress,[1]; rasagiline 10 μM,attenuated
same,effect on methamphetamine-induced axonal (terminal) mitochondrial stress,[1]; [6],prevented
same,effect on levodopa-induced dendritic mitochondrial stress,[1]; rasagiline 10 μM,prevented
same,effect on levodopa-induced axonal (terminal) mitochondrial stress,[1]; rasagiline 10 μM,attenuated
same,effect on levodopa-induced axonal (terminal) mitochondrial stress,[1]; [6],prevented
same,"basal mitochondrial stress, monoamine oxidase inhibitor alone",[1]; rasagiline 10 μM,Neither rasagiline nor clorgyline had any effect on basal mitochondrial oxidant stress; also recorded: had no effect on mitochondrial stress
same,effect on methamphetamine- and levodopa-induced mitochondrial stress,[1],attenuated
same,effect on methamphetamine-induced loss of TH+ cells,"[2]; 1 mg/kg rasagiline, 30 min pretreatment, 5 mg/kg methamphetamine 14 days",prevented meth-induced loss of TH+ cells
same,"effect on methamphetamine-induced loss of SNc neurons, Dat-Cre X Ai14 mice","[3]; 1 mg/kg rasagiline 30 min pretreatment, 5 mg/kg methamphetamine",significantly reduced degeneration in both the striatum and SNc; also recorded: prevented
same,effect on methamphetamine-induced loss of SNc axons in the striatum,[3]; [7],significantly reduced degeneration in both the striatum and SNc; also recorded: prevented
same,effect on methamphetamine-induced loss of TH+ neurons,[3]; [7],prevented
[Cl-].[K+] [KCl],axonal mitochondrial stress,[1]; 15 mM KCl alone,not significantly altered
same,axonal mitochondrial stress,[1]; 30 mM KCl perfusion,increased axonal mitochondrial stress
COC(=O)C1=C(C)NC(C)=C([N+](=O)[O-])C1c1ccccc1C(F)(F)F (stereo not drawn) [Bay K 8644],axonal (terminal) mitochondrial stress,"[1]; 10 μM drug alone, relative to control (aCSF), dorsolateral striatum slices",increased axonal mitochondrial stress
CC1=CC(=O)c2ccccc2C1=O [menadione],cyto-roGFP oxidation state,[4],> 200 % above baseline
C#CCN(C)CCCOc1ccc(Cl)cc1Cl [clorgyline],effect on methamphetamine-induced dendritic mitochondrial stress,[1]; rasagiline 10 μM,prevented
same,effect on methamphetamine-induced axonal (terminal) mitochondrial stress,[1]; rasagiline 10 μM,attenuated; also recorded: prevented rises in mitochondrial stress
same,effect on levodopa-induced dendritic mitochondrial stress,[1]; rasagiline 10 μM,prevented
same,effect on levodopa-induced axonal (terminal) mitochondrial stress,[1]; rasagiline 10 μM,attenuated; also recorded: prevented rises in mitochondrial stress
same,"basal mitochondrial stress, monoamine oxidase inhibitor alone",[1]; rasagiline 10 μM,Neither rasagiline nor clorgyline had any effect on basal mitochondrial oxidant stress; also recorded: had no effect on mitochondrial stress
same,effect on methamphetamine- and levodopa-induced mitochondrial stress,[1],attenuated; also recorded: diminished the mitochondrial redox effects of methamphetamine and levodopa
"N[C@@H](Cc1ccc(O)c(O)c1)C(=O)O [levodopa, L-3,4-dihydroxyphenylalanine]",axonal mitochondrial stress (mitochondrial matrix roGFP),[5]; 100 μM levodopa vs basal,increased axonal mitochondrial stress
same,dendritic mitochondrial stress (mitochondrial matrix roGFP),[5]; 100 μM levodopa vs basal,increased
same,axonal mitochondrial stress in the intermembrane space,[5],increased axonal mitochondrial stress in the intermembrane space
same,axonal mitochondrial stress in the intermembrane space,[5]; listed as Levodopa,robustly increased oxidant stress within the intermembrane space
same,mitochondrial matrix oxidant stress in human dopaminergic neurons,[5]; levodopa,increased mitochondrial matrix oxidant stress in human dopaminergic neurons in a MAO-dependent manner
"CNC(C)Cc1ccccc1 (stereo not drawn) [methamphetamine, N-methylamphetamine]",tyrosine hydroxylase positive (TH+) cells,"[2]; 5 mg/kg methamphetamine for 14 days, sacrificed after 14 days withdrawal",loss of TH+ cells
same,"tyrosine hydroxylase expressing neurons (TH+ neurons) in the SNc, stereological quantification","[3]; 5 mg/kg methamphetamine ip, 28 consecutive days",significantly decreased tyrosine hydroxylase (TH) immunoreactivity in the SNc; also recorded: loss of tyrosine hydroxylase expressing neurons
same,"SNc axons in the striatum, optical density measurements",[3]; [8],loss of tdTomato fluorescence in both the striatum and SNc neurons; also recorded: loss of SNc axons in the striatum
same,"labeled (tdTomato) SNc neurons, Dat-Cre X Ai14 mice, stereological quantification",[3]; [8],loss of tdTomato fluorescence in both the striatum and SNc neurons
same,pacemaking frequency,SNc dopaminergic neurons,attenuated
